# Assay results reported in ChEMBL document CHEMBL3885861, “Open TG-GATES”.
# Species on record: Rattus norvegicus
# Assay: Open TG-GATES - Regimen: Single
# Type: toxicity, organism-based, Sprague-Dawley
# Parameters: regimen Single, gender Male, age 6 weeks
# Settings: in vivo, po, 0 mg/kg, route gavage, dose level Control; for APTT / Bas / Eos / Fbg / Hb / Ht / Lym / MCH / MCHC / MCV / Mono / Neu / PT / Plat / RBC / Ret / WBC: tissue Blood; for KIDNEY_L / KIDNEY_R / KIDNEY_TOTAL: tissue Kidney; for LIVER: tissue Liver; for A/G / ALP / ALT / AST / BUN / CRE / Ca / Cl / DBIL / GLC / IP / K / LDH / Na / PL / RALB / TBIL / TC / TG / TP / gamma-GTP: tissue Plasma
structure (smiles),measurement,setting,value
CCCNC(=O)NS(=O)(=O)c1ccc(Cl)cc1 [CHLORPROPAMIDE],TERMINAL_BW,3 h,199.1 g
same,APTT,3 h,16.5 s
same,Bas,3 h,0.4%
same,Eos,3 h,1%
same,Fbg,3 h,290 mg/dL
same,Hb,3 h,13.3 g/dL
same,Ht,3 h,40.3%
same,Lym,3 h,76.2%
same,MCH,3 h,21.1 pg
same,MCHC,3 h,32.9%
same,MCV,3 h,64.1 fL
same,Mono,3 h,3.4%
same,Neu,3 h,17.8%
same,PT,3 h,15.6 s
same,Plat,3 h,118.9 x10_4/uL
same,RBC,3 h,629.8 x10_4/ul
same,Ret,3 h,8.9%
same,WBC,3 h,85.4 x10_2/uL
same,KIDNEY_L,3 h,0.9 g
same,KIDNEY_R,3 h,0.9 g
same,KIDNEY_TOTAL,3 h,1.8 g
same,LIVER,3 h,8.8 g
same,A/G,3 h,0.9
same,ALP,3 h,1444 IU/L
same,ALT,3 h,43.6 IU/L
same,AST,3 h,75.8 IU/L
same,BUN,3 h,10.4 mg/dL
same,CRE,3 h,0.2 mg/dL
same,Ca,3 h,10.9 mg/dL
same,Cl,3 h,106 meq/L
same,DBIL,3 h,0.01 mg/dL
same,GLC,3 h,176.6 mg/dL
same,IP,3 h,8.9 mg/dL
same,K,3 h,4.3 meq/L
same,LDH,3 h,89 IU/L
same,Na,3 h,142.2 meq/L
same,PL,3 h,137.8 mg/dL
same,RALB,3 h,2.5 g/dL
same,TBIL,3 h,0.04 mg/dL
same,TC,3 h,80.2 mg/dL
same,TG,3 h,53.8 mg/dL
same,TP,3 h,5.4 g/dL
same,gamma-GTP,3 h,1.4 IU/L
same,TERMINAL_BW,6 h,194.7 g
same,APTT,6 h,18.3 s
same,Bas,6 h,0.2%
same,Eos,6 h,1%
same,Fbg,6 h,308.8 mg/dL
same,Hb,6 h,13.2 g/dL
same,Ht,6 h,40.5%
same,Lym,6 h,71.2%
same,MCH,6 h,21 pg
same,MCHC,6 h,32.6%
same,MCV,6 h,64.3 fL
same,Mono,6 h,3%
same,Neu,6 h,23.8%
same,PT,6 h,15.4 s
same,Plat,6 h,108.8 x10_4/uL
same,RBC,6 h,630.6 x10_4/ul
same,Ret,6 h,9.2%
same,WBC,6 h,85.6 x10_2/uL
same,KIDNEY_L,6 h,0.9 g
same,KIDNEY_R,6 h,0.9 g
same,KIDNEY_TOTAL,6 h,1.7 g
same,LIVER,6 h,8.2 g
same,A/G,6 h,0.9
same,ALP,6 h,1385.6 IU/L
same,ALT,6 h,42.4 IU/L
same,AST,6 h,74.4 IU/L
same,BUN,6 h,9.4 mg/dL
same,CRE,6 h,0.2 mg/dL
same,Ca,6 h,10.7 mg/dL
same,Cl,6 h,106 meq/L
same,DBIL,6 h,0.01 mg/dL
same,GLC,6 h,174 mg/dL
same,IP,6 h,9.8 mg/dL
same,K,6 h,4.2 meq/L
same,LDH,6 h,63.6 IU/L
same,Na,6 h,143 meq/L
same,PL,6 h,153.4 mg/dL
same,RALB,6 h,2.5 g/dL
same,TBIL,6 h,0.046 mg/dL
same,TC,6 h,90.6 mg/dL
same,TG,6 h,50.6 mg/dL
same,TP,6 h,5.4 g/dL
same,gamma-GTP,6 h,1 IU/L
same,TERMINAL_BW,9 h,194.8 g
same,APTT,9 h,18.5 s
same,Bas,9 h,0%
same,Eos,9 h,0.8%
same,Fbg,9 h,294.6 mg/dL
same,Hb,9 h,12.9 g/dL
same,Ht,9 h,39.6%
same,Lym,9 h,74.4%
same,MCH,9 h,21.3 pg
same,MCHC,9 h,32.8%
same,MCV,9 h,65.1 fL
same,Mono,9 h,2.2%
same,Neu,9 h,21%
same,PT,9 h,15.4 s
same,Plat,9 h,119.1 x10_4/uL
same,RBC,9 h,607.8 x10_4/ul
same,Ret,9 h,9.1%
same,WBC,9 h,91.1 x10_2/uL
same,KIDNEY_L,9 h,0.9 g
same,KIDNEY_R,9 h,0.9 g
same,KIDNEY_TOTAL,9 h,1.8 g
same,LIVER,9 h,7.6 g
same,A/G,9 h,0.9
same,ALP,9 h,1410 IU/L
same,ALT,9 h,42 IU/L
same,AST,9 h,74.6 IU/L
same,BUN,9 h,8.4 mg/dL
same,CRE,9 h,0.2 mg/dL
same,Ca,9 h,10.6 mg/dL
same,Cl,9 h,106.8 meq/L
same,DBIL,9 h,0.006 mg/dL
same,GLC,9 h,165.4 mg/dL
same,IP,9 h,10 mg/dL
same,K,9 h,3.9 meq/L
same,LDH,9 h,63.6 IU/L
same,Na,9 h,142.8 meq/L
same,PL,9 h,136.6 mg/dL
same,RALB,9 h,2.5 g/dL
same,TBIL,9 h,0.052 mg/dL
same,TC,9 h,84.4 mg/dL
same,TG,9 h,41.4 mg/dL
same,TP,9 h,5.4 g/dL
same,gamma-GTP,9 h,1 IU/L
same,TERMINAL_BW,24 h,211.4 g
same,APTT,24 h,16.9 s
same,Bas,24 h,0.2%
same,Eos,24 h,0.8%
same,Fbg,24 h,277.8 mg/dL
same,Hb,24 h,13 g/dL
same,Ht,24 h,40.6%
same,Lym,24 h,80%
same,MCH,24 h,21.7 pg
same,MCHC,24 h,32.2%
same,MCV,24 h,67.3 fL
same,Mono,24 h,2.8%
same,Neu,24 h,15%
same,PT,24 h,15.5 s
same,Plat,24 h,117.6 x10_4/uL
same,RBC,24 h,602.6 x10_4/ul
same,Ret,24 h,9.2%
same,WBC,24 h,102.7 x10_2/uL
same,KIDNEY_L,24 h,0.9 g
same,KIDNEY_R,24 h,0.9 g
same,KIDNEY_TOTAL,24 h,1.9 g
same,LIVER,24 h,10.1 g
same,A/G,24 h,0.8
same,ALP,24 h,1569 IU/L
same,ALT,24 h,44.8 IU/L
same,AST,24 h,71.8 IU/L
same,BUN,24 h,14.6 mg/dL
same,CRE,24 h,0.2 mg/dL
same,Ca,24 h,10.9 mg/dL
same,Cl,24 h,105.4 meq/L
same,DBIL,24 h,0.012 mg/dL
same,GLC,24 h,187 mg/dL
same,IP,24 h,8.5 mg/dL
same,K,24 h,4.2 meq/L
same,LDH,24 h,79.4 IU/L
same,Na,24 h,142.6 meq/L
same,PL,24 h,154 mg/dL
same,RALB,24 h,2.6 g/dL
same,TBIL,24 h,0.034 mg/dL
same,TC,24 h,82.6 mg/dL
same,TG,24 h,108.6 mg/dL
same,TP,24 h,5.6 g/dL
same,gamma-GTP,24 h,1 IU/L
